{"source": "paper PMC9851200", "about": "“Multiparameter phenotypic screening for endogenous TFEB and TFE3 translocation identifies novel chemical series modulating lysosome function” (Autophagy, 2022)", "assay_type_in_all_cases": "binding", "key": {"[1]": {"target": "cellular kinases of SH-SY5Y cells (Homo sapiens, UniProt P41240)", "sequence (P41240 whole entry)": "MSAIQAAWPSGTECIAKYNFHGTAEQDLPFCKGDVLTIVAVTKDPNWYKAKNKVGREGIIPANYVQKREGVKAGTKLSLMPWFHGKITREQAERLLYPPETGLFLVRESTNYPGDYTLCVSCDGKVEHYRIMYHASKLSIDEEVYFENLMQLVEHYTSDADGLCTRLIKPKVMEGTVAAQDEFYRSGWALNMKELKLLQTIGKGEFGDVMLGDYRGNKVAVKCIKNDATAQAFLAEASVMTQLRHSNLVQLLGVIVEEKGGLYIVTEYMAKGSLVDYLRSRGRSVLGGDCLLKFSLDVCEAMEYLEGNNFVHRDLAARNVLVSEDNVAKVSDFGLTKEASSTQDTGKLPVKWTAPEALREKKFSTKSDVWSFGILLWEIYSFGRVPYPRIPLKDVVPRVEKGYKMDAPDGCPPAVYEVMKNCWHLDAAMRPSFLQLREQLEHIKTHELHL", "assay": "biochemical", "settings": "2µM, SH-SY5Y cells, read-out: KiNativ in-cell binding, % Inhibition, CSK", "description": "(§1) As KINOMEscan is an in vitro assay, and as different cell types have variable kinase expression profiles we sought to determine the kinase binding profile in our SH-SY5Y TFEB-relocalization cell model. […] Bound kinases were pulled down and analyzed by mass spectrometry to determine the in situ kinase binding profile for each compound."}, "[2]": {"target": "cellular kinases of SH-SY5Y cells (Homo sapiens, UniProt P31749)", "assay": "biochemical", "settings": "2µM; SH-SY5Y cells; Labeling Site ATP Loop; GTFGKVILVK; read-out: KiNativ in-cell binding, % Inhibition, AKT1", "description": "as §1"}, "[3]": {"target": "T1, cellular kinases of SH-SY5Y cells (Homo sapiens, UniProt Q9NRH2)", "T1 construct": "endogenous in cells; host or cells: SH-SY5Y", "T1 sequence (Q9NRH2 whole entry)": "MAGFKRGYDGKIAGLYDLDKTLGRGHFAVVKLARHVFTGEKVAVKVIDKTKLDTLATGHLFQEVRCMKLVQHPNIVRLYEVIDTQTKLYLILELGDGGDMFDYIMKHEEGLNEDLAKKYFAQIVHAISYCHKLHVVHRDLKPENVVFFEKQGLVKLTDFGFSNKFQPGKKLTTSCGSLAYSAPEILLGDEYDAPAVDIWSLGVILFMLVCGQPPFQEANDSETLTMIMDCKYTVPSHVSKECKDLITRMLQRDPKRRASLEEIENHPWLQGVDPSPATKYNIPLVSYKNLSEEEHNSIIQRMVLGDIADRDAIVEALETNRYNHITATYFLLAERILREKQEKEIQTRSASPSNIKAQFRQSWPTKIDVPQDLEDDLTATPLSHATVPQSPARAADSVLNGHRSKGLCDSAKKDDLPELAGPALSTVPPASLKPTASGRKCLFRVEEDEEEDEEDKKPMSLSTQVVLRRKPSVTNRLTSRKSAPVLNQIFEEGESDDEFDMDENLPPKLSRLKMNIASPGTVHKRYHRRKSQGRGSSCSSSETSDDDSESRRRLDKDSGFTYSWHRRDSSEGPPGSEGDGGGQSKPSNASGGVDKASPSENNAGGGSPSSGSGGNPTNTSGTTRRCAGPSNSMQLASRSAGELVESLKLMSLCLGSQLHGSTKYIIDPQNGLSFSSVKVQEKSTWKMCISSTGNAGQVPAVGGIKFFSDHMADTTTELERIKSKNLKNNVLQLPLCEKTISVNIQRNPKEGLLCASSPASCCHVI", "assay": "biochemical", "settings": "2µM, SH-SY5Y cells, read-out: KiNativ in-cell binding, % Inhibition, SNRK", "description": "as §1"}, "[4]": {"target": "cellular kinases of SH-SY5Y cells (Homo sapiens, UniProt P11802)", "assay": "biochemical", "settings": "2µM; SH-SY5Y cells; Labeling Site Lys2; DLKPENILVTSGGTVK; read-out: KiNativ in-cell binding, % Inhibition, CDK4", "description": "as §1"}, "[5]": {"target": "cellular kinases of SH-SY5Y cells (Homo sapiens, UniProt P07332)", "assay": "biochemical", "settings": "2µM; SH-SY5Y cells; Labeling Site Lys1; LRADNTLVAVKSCR; read-out: KiNativ in-cell binding, % Inhibition, FES", "description": "as §1"}, "[6]": {"target": "cellular kinases of SH-SY5Y cells (Homo sapiens, UniProt O75716)", "assay": "biochemical", "settings": "2µM; SH-SY5Y cells; Labeling Site Lys2; DLKPTNILLGDEGQPVLMDLGSMNQACIHVEGSR; read-out: KiNativ in-cell binding, % Inhibition, STK16", "description": "as §1"}, "[7]": {"target": "T2, cellular kinases of SH-SY5Y cells (Homo sapiens, UniProt Q13523)", "T2 construct": "endogenous in cells; host or cells: SH-SY5Y", "assay": "biochemical", "settings": "2µM; SH-SY5Y cells; Labeling Site Lys2; CNILHADIKPDNILVNESK; read-out: KiNativ in-cell binding, % Inhibition, PRPF4B", "description": "as §1"}, "[8]": {"target": "cellular kinases of SH-SY5Y cells (Homo sapiens, UniProt P53350)", "sequence (P53350 whole entry)": "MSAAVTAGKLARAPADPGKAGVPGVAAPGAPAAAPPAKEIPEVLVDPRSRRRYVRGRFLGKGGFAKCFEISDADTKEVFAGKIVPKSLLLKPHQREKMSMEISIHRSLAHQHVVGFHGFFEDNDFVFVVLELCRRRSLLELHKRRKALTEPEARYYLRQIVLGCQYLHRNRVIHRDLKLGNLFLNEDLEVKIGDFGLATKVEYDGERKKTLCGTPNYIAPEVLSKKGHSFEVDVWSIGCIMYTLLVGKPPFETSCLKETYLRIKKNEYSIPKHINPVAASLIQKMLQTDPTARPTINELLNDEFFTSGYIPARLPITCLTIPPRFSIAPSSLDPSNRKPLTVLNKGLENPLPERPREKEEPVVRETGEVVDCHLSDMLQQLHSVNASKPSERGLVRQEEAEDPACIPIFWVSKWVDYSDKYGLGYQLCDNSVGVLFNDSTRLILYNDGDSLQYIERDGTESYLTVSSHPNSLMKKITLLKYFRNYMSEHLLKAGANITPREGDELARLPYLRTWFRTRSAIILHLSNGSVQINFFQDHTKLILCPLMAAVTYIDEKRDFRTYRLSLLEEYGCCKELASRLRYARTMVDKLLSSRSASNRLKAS", "assay": "biochemical", "settings": "2µM, SH-SY5Y cells, read-out: KiNativ in-cell binding, % Inhibition, PLK1", "description": "as §1"}, "[9]": {"target": "cellular kinases of SH-SY5Y cells (Homo sapiens, UniProt O00418)", "assay": "biochemical", "settings": "2µM; SH-SY5Y cells; Labeling Site ATP; YIKYNSNSGFVR; read-out: KiNativ in-cell binding, % Inhibition, eEF2K", "description": "as §1"}, "[10]": {"target": "T3, cellular kinases of SH-SY5Y cells (Homo sapiens, UniProt Q9UL54)", "T3 construct": "endogenous in cells; host or cells: SH-SY5Y", "assay": "biochemical", "settings": "2µM; SH-SY5Y cells; Labeling Site Lys2; DVKAGNILLSEPGLVK; read-out: KiNativ in-cell binding, % Inhibition, TAOK2/TAO2", "description": "as §1"}, "[11]": {"target": "T4, cellular kinases of SH-SY5Y cells (Homo sapiens, UniProt Q9Y2H1)", "T4 construct": "endogenous in cells; host or cells: SH-SY5Y", "T4 sequence (Q9Y2H1 whole entry)": "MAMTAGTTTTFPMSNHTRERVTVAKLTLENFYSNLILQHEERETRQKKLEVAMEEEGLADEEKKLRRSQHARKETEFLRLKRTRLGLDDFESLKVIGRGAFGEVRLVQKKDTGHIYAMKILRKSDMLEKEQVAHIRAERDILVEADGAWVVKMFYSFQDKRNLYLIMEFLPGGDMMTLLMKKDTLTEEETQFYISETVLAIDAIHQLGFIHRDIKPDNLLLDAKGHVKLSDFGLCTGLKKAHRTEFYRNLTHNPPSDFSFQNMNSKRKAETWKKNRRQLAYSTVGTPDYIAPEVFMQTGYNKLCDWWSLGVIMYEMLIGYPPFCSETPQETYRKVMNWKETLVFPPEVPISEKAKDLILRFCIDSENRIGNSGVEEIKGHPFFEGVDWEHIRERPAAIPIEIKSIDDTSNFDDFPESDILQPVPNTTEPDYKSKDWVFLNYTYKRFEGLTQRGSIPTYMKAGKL", "assay": "biochemical", "settings": "2µM, SH-SY5Y cells", "description": "as §1"}, "[12]": {"target": "T5, cellular kinases of SH-SY5Y cells (Homo sapiens, UniProt O15021)", "T5 construct": "endogenous in cells; host or cells: SH-SY5Y", "assay": "biochemical", "settings": "2µM; SH-SY5Y cells; Labeling Site Lys2; DLKPDNLLVTSMGHIK; read-out: KiNativ in-cell binding, % Inhibition, MAST4", "description": "as §1"}, "[13]": {"target": "cellular kinases of SH-SY5Y cells (Homo sapiens, UniProt Q15349)", "assay": "biochemical", "settings": "2µM; SH-SY5Y cells; labeling site Lys2; peptide DLKPENILLDEEGHIKITDFGLSK", "description": "as §1"}, "[14]": {"target": "T6, cellular kinases of SH-SY5Y cells (Homo sapiens, UniProt Q96GX5)", "T6 construct": "endogenous in cells; host or cells: SH-SY5Y", "T6 sequence (Q96GX5 whole entry)": "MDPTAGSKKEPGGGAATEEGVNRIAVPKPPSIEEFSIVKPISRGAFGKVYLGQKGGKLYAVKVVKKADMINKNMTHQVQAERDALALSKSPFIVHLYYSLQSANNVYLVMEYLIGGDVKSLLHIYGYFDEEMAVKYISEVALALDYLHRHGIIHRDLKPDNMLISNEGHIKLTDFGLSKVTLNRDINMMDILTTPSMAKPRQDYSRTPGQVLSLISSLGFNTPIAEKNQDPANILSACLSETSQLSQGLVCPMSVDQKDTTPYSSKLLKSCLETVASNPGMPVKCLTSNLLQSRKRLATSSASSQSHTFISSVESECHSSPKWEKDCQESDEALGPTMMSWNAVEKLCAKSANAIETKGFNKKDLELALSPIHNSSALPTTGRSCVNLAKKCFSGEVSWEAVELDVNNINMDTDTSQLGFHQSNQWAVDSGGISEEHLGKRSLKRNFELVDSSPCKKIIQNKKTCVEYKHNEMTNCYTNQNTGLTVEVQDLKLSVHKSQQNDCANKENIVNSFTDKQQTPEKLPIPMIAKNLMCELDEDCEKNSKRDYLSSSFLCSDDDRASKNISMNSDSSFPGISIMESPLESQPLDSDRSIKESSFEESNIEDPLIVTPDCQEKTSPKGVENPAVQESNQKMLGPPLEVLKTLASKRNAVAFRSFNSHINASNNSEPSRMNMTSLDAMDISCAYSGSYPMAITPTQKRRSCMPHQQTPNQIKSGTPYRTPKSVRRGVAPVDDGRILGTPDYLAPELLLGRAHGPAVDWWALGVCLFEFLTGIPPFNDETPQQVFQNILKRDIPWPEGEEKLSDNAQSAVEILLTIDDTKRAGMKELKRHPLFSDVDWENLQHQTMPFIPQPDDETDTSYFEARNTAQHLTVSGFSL", "assay": "biochemical", "settings": "2µM, SH-SY5Y cells, read-out: KiNativ in-cell binding, % Inhibition, MASTL", "description": "as §1"}, "[15]": {"target": "T7, cellular kinases of SH-SY5Y cells (Homo sapiens, UniProt O15111)", "T7 construct": "endogenous in cells; host or cells: SH-SY5Y", "T7 sequence (O15111 whole entry)": "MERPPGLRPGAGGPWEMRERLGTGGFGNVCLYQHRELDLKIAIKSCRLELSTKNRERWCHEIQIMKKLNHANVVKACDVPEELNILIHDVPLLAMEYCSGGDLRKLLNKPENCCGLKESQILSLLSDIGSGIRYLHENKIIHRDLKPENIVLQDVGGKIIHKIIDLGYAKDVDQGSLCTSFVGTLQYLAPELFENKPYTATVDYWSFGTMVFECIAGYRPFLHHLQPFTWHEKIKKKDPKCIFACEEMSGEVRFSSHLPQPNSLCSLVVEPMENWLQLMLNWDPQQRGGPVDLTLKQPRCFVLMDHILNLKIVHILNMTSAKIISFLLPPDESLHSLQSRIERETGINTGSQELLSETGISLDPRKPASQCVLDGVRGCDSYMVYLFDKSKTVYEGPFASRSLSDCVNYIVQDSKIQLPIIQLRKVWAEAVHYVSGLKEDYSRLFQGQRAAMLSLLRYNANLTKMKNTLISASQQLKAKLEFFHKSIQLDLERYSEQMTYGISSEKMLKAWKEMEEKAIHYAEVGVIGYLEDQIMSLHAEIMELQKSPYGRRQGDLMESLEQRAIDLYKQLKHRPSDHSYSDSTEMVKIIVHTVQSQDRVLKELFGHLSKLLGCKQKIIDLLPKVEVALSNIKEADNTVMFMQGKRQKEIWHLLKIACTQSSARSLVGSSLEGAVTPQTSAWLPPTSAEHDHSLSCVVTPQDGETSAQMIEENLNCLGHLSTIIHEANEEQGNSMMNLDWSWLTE", "assay": "biochemical", "settings": "2µM; SH-SY5Y cells; Labeling Site Lys2; DLKPENIVLQDVGGK; read-out: KiNativ in-cell binding, % Inhibition, CHUK/IKKa", "description": "as §1"}, "[16]": {"target": "cellular kinases of SH-SY5Y cells (Homo sapiens, UniProt Q16566)", "sequence (Q16566 whole entry)": "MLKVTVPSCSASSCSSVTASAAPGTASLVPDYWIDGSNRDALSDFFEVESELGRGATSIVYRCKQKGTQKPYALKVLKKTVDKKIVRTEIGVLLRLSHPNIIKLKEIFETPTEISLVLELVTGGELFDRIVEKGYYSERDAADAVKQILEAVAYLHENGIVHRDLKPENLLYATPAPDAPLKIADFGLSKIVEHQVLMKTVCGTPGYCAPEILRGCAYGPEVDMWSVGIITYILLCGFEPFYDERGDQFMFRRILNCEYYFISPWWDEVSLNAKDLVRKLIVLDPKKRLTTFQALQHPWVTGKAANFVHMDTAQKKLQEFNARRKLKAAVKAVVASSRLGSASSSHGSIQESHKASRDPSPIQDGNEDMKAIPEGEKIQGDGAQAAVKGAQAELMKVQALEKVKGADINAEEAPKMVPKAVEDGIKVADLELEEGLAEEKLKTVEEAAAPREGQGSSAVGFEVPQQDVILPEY", "assay": "biochemical", "settings": "2µM, SH-SY5Y cells", "description": "as §1"}, "[17]": {"target": "cellular kinases of SH-SY5Y cells (Homo sapiens, UniProt P10398)", "sequence (P10398 whole entry)": "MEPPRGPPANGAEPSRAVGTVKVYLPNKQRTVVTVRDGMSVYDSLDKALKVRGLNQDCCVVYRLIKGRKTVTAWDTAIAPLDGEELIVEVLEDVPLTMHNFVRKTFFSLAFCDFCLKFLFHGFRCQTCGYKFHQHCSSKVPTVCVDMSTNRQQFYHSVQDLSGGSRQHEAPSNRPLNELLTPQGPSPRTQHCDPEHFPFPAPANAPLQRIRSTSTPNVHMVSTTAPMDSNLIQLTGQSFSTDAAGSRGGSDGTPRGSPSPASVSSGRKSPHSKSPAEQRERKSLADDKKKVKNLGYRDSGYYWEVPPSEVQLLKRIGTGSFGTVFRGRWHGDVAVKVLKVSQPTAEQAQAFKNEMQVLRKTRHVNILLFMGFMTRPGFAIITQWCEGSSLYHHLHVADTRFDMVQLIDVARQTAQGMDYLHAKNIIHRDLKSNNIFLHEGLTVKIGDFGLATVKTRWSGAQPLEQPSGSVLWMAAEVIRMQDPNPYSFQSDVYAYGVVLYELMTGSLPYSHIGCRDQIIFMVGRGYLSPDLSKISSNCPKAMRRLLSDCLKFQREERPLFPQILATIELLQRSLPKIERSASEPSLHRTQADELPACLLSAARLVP", "assay": "biochemical", "settings": "2µM; SH-SY5Y cells; Labeling Site Lys2; DLKSNNIFLHEGLTVK; read-out: KiNativ in-cell binding, % Inhibition, ARAF", "description": "as §1"}, "STK10/LOK": {"target": "STK10/LOK (Homo sapiens, UniProt O94804)"}}, "note": "Read-outs that look alike come from different tables or passages of the source.", "data": [{"smiles": "Cc1cccc(-c2nc(Nc3ccc4ncsc4c3)c3ccccc3n2)n1", "note": "[NK140]", "values": [{"measurement": "inhibition at 2 µM", "setting": "[1]; Labeling Site Activation Loop, VSDFGLTKEASSTQDTGKLPVK", "result": 21.6, "unit": "%"}, {"measurement": "inhibition at 2 µM", "setting": "[1]; Labeling Site Lys1, VAVKCIK", "result": 4.7, "unit": "%"}, {"measurement": "inhibition at 2 µM", "setting": "[2]", "result": 21.9, "unit": "%"}, {"measurement": "inhibition at 2 µM", "setting": "[3]; Labeling Site Lys1, VAVKVIDK", "result": 37.3, "unit": "%"}, {"measurement": "inhibition at 2 µM", "setting": "[3]; Labeling Site Lys2, DLKPENVVFFEK", "result": 36.3, "unit": "%"}, {"measurement": "inhibition at 2 µM", "setting": "[4]", "result": -19.8, "unit": "%"}, {"measurement": "inhibition at 2 µM", "setting": "[5]", "result": 17.1, "unit": "%"}, {"measurement": "inhibition at 2 µM", "setting": "[6]", "result": -42.2, "unit": "%"}, {"measurement": "inhibition at 2 µM", "setting": "[7]", "result": 32.3, "unit": "%"}, {"measurement": "inhibition at 2 µM", "setting": "[8]; Labeling Site Lys1, CFEISDADTKEVFAGKIVPK", "result": 26, "unit": "%"}, {"measurement": "inhibition at 2 µM", "setting": "[8]; Labeling Site Lys2, DLKLGNLFLNEDLEVK", "result": 9, "unit": "%"}, {"measurement": "inhibition at 2 µM", "setting": "[9]", "result": 26, "unit": "%"}, {"measurement": "inhibition at 2 µM", "setting": "[10]", "result": 23.9, "unit": "%"}, {"measurement": "inhibition at 2 µM", "setting": "[11]; Labeling Site Lys1, DTGHIYAMKILR, read-out: KiNativ in-cell binding, % Inhibition, STK38L/NDR2", "result": -47.2, "unit": "%"}, {"measurement": "inhibition at 2 µM", "setting": "[11]; Labeling Site Lys2, DIKPDNLLLDAK, read-out: KiNativ in-cell binding, % Inhibition, NDR2", "result": -39.9, "unit": "%"}, {"measurement": "inhibition at 2 µM", "setting": "[12]", "result": 27.2, "unit": "%"}, {"measurement": "KiNativ in-cell binding, RSK3 domain1", "setting": "[13]", "result": -68.0}, {"measurement": "inhibition at 2 µM", "setting": "[14]; Labeling Site ATP Loop, GAFGKVYLGQK", "result": 4.2, "unit": "%"}, {"measurement": "inhibition at 2 µM", "setting": "[14]; Labeling Site Lys1, LYAVKVVK", "result": -7.7, "unit": "%"}, {"measurement": "inhibition at 2 µM", "setting": "[15]", "result": -29.6, "unit": "%"}, {"measurement": "KiNativ in-cell binding, CaMK4", "setting": "[16]; labeling site Lys1, peptide GTQKPYALKVLK", "result": -10.9}, {"measurement": "KiNativ in-cell binding, CaMK4", "setting": "[16]; labeling site Lys2, peptide DLKPENLLYATPAPDAPLK", "result": -28.9}, {"measurement": "inhibition at 2 µM", "setting": "[17]", "result": 28.7, "unit": "%"}]}, {"smiles": "Cc1cccc(-c2nc(N(C)c3ccc4ncsc4c3)c3ccccc3n2)n1", "note": "[NK-161]", "values": [{"measurement": "KINOMEscan STK10/LOK", "setting": "STK10/LOK", "result": 19}]}]}
